This is an account of results in patent US7297705B2, “Azaindolylalkylamine derivatives as 5-hydroxytryptamine-6 ligands” (Wyeth, priority 2001, dated 2007).

Where two headings read alike, the source gives them in different places.

The assay concerns the target T1, human cloned 5-HT6 receptors (Homo sapiens, UniProt P50406).
T1 construct: expressed in transfected cells; host or cells: Hela cells
Put plainly: 5-HT6 binding affinity, [3H]-LSD displacement on membranes of Hela cells expressing human cloned 5-HT6 receptors. On the procedure: Comparative Evaluation of 5-HT6 Binding Affinity of Test Compounds
The affinity of test compounds for the serotonin 5-HT6 receptor is evaluated in the following manner. Cultured Hela cells expressing human cloned 5-HT6 receptors are harvested and centrifuged at low speed (1,000×g) for 10.0 min to remove the culture media. The harvested cells are suspended in half volume of fresh physiological phosphate buffered saline solution and recentrifuged at the same speed. This operation is repeated. The collected cells are then homogenized in ten volumes of 50 mM Tris.HCl (pH 7.4) and 0.5 mM EDTA. The homogenate is centrifuged at 40,000×g for 30.0 min and the precipitate is collected. The obtained pellet is resuspended in 10 volumes of Tris.HCl buffer and recentrifuged at the same speed. The final pellet is suspended in a small volume of Tris.HCl buffer and the tissue protein content is determined in aliquots of 10-25 μl volumes. Bovine Serum Albumin is used as the standard in the protein determination according to the method described in Lowry et al., J. Biol. Chem., 193:265 (1951). The volume of the suspended cell membranes is adjusted to give a tissue protein concentration of 1.0 mg/ml of suspension. The prepared membrane suspension (10 times concentrated) is aliquoted in 1.0 ml volumes and stored at −70° C. until used in subsequent binding experiments.
The reaction is allowed to proceed in the dark for 120 min at room temperature, at which time, the bound ligand-receptor complex is filtered off on a 96 well unifilter with a Packard Filtermate® 196 Harvester. The bound complex caught on the filter disk is allowed to air dry and the radioactivity is measured in a Packard TopCount® equipped with six photomultiplier detectors, after the addition of 40.0 μl Microscint®-20 scintillant to each shallow well. The unifilter plate is heat-sealed and counted in a PackardTopCount® with a tritium efficiency of 31.0%.
Binding in the presence of varying concentrations of test compound is expressed as a percentage of specific binding in the absence of test compound. The results are plotted as log % bound versus log concentration of test compound. […] A linear regression line of data points is plotted, from which the IC50 value is determined and the Ki value is determined based upon the following equation: Ki=IC50/(1+L/KD) where L is the concentration of the radioactive ligand used and KD is the dissociation constant of the ligand for the receptor, both expressed in nM.

T1 sequence (P50406 whole entry): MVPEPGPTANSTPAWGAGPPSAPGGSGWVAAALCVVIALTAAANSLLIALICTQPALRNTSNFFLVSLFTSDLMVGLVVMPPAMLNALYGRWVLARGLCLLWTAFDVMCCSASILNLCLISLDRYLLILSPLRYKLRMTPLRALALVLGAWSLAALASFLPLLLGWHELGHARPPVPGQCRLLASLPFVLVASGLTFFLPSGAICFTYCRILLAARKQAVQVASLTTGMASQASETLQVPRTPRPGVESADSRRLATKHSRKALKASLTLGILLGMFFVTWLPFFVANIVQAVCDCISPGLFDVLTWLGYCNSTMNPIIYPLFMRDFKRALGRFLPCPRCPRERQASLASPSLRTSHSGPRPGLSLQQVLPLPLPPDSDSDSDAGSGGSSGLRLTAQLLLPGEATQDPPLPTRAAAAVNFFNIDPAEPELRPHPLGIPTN

What is called Ki is the dissociation constant of the complex between target and ligand, obtained from inhibition or displacement. Regarding `NCCc1cn(S(=O)(=O)c2ccccc2Cl)c2cccnc12` [Example 1, 2-[1-(2-Clorobenzensulfonyl)-1H-pyrrolo[3,2-b]pyridin-3-yl]ethylamine], the Ki ([3H]-LSD 3.0 nM, 120 min at room temperature, Ki=IC50/(1+L/KD), read-out: 5-HT6 Binding Ki) was 5 nM.

Take `NCCc1cn(S(=O)(=O)c2ccc(Cl)s2)c2cccnc12` [Example 5]: the Ki (read-out: 5-HT6 Binding Ki) turned out to be 2 nM.

In turn, `NCCc1cn(S(=O)(=O)c2c(Cl)nc3sccn23)c2cccnc12` [Example 11] showed a Ki of 0.8 nM.

On to `NCCc1cn(S(=O)(=O)c2cccc(C(F)(F)F)c2)c2cccnc12` [Example 13], for which the affinity, expressed as Ki, was 5 nM.

`NCCc1cn(S(=O)(=O)c2ccc(C(F)(F)F)cc2Cl)c2cccnc12` [Example 14] registered a Ki of 15 nM.

In the case of `NCCc1cn(S(=O)(=O)c2ccc(F)c(F)c2)c2cccnc12` [Example 15], the affinity, expressed as Ki, was 16 nM.

With `NCCc1cn(S(=O)(=O)c2cccc(Cl)c2)c2cccnc12` [Example 16], where the note is “read-out: 5-HT6 Binding Ki”, the inhibitory constant (Ki) was determined as 1.6 nM.

Compound `COc1cccc(S(=O)(=O)n2cc(CCN)c3ncccc32)c1` [Example 17] registered a Ki of 2.9 nM.

Turning to `NCCc1cn(S(=O)(=O)c2cnc3sccn23)c2cccnc12` [Example 18], the inhibition constant (Ki) is 1.6 nM.

On to `NCCc1cn(S(=O)(=O)c2ccccc2)c2cccnc12` [Example 19], for which the Ki (read-out: 5-HT6 Binding Ki) came to 4.5 nM.

Compound `NCCc1cn(S(=O)(=O)c2cccc(F)c2)c2cccnc12` [Example 20] showed a Ki of 3.3 nM.

`Cc1cccc(S(=O)(=O)n2cc(CCN)c3ncccc32)c1` [Example 22] yielded an inhibitory constant (Ki) of 2.4 nM.

Compound `NCCc1cn(S(=O)(=O)c2cccc(Cl)c2Cl)c2cccnc12` [Example 23] registered an inhibitory constant (Ki) of 2.1 nM.

The compound `NCCc1cn(S(=O)(=O)c2ccccc2F)c2cccnc12` [Example 24] came in with an inhibition constant (Ki) of 5.3 nM.

Consider `NCCc1cn(S(=O)(=O)c2cccc(Br)c2)c2cccnc12` [Example 25], for which the Ki (read-out: 5-HT6 Binding Ki) worked out at 3.5 nM.

Compound `NCCc1cn(S(=O)(=O)c2c(Cl)nc3sc(Cl)cn23)c2cccnc12` [Example 26] showed a Ki of 7.3 nM.

Turning to `NCCc1cn(S(=O)(=O)c2c(Cl)nc3sccn23)c2ccncc12` [Example 35, 2-{[1-(6-Chloroimidazo[2,1-b]thiazol-5-yl)sulfonyl]-1H-pyrrolo[3,2-c]pyridin-3-yl)ethylamine], the inhibition constant Ki was 15.7 nM.

Consider `NCCc1cn(S(=O)(=O)c2cnc3sccn23)c2ccncc12` [Example 39], for which the inhibitory constant (Ki) is 47 nM.

Turning to `NCCc1cn(S(=O)(=O)c2cccc(Cl)c2)c2ccncc12` [Example 40], the Ki (read-out: 5-HT6 Binding Ki) was 110 nM.

On to `NCCc1cn(S(=O)(=O)c2cccc(F)c2)c2ccncc12` [Example 41], for which the Ki (read-out: 5-HT6 Binding Ki) turned out to be 170 nM.

With `COc1cccc(S(=O)(=O)n2cc(CCN)c3cnccc32)c1` [Example 42], the Ki (read-out: 5-HT6 Binding Ki) stood at 198 nM.

The compound `NCCc1cn(S(=O)(=O)c2ccc(Cl)s2)c2ccncc12` [Example 43] showed an inhibitory constant (Ki) of 47.5 nM.

Turning to `NCCc1cn(S(=O)(=O)c2ccccc2)c2ccncc12` [Example 44], under “read-out: 5-HT6 Binding Ki”, the inhibitory constant (Ki) amounted to 164 nM.

For the compound `Cc1cccc(S(=O)(=O)n2cc(CCN)c3cnccc32)c1` [Example 45], the inhibitory constant (Ki) (read-out: 5-HT6 Binding Ki) is 152 nM.

For `NCCc1cn(S(=O)(=O)c2cccc(C(F)(F)F)c2)c2ccncc12` [Example 46], the inhibition constant (Ki) (read-out: 5-HT6 Binding Ki) was found to be 173 nM.

Turning to `NCCc1cn(S(=O)(=O)c2cccc(Cl)c2Cl)c2ccncc12` [Example 47], the Ki came out at 32.7 nM.

Regarding `COc1cccc(S(=O)(=O)n2cc(CCN)c3cccnc32)c1` [Example 68, 2-[1-(3-Methoxybenzenesulfonyl)-1H-pyrrolo[2,3-b]pyridin-3-yl]ethylamine], the Ki worked out at 33.3 nM.

As to `NCCc1cn(S(=O)(=O)c2ccc(F)cc2F)c2ncccc12` [Example 71], the Ki (read-out: 5-HT6 Binding Ki) came out at 113 nM.

`NCCc1cn(S(=O)(=O)c2ccccc2)c2ncccc12` [Example 80]: the Ki (read-out: 5-HT6 Binding Ki) was 43 nM.

With `NCCc1cn(S(=O)(=O)c2ccc3ccccc3c2)c2ncccc12` [Example 82], the Ki was determined as 12 nM.

`NCCc1cn(S(=O)(=O)c2ccc(N)cc2)c2ncccc12` [Example 83] registered a Ki of 2.4 nM.

On to `COc1ccc(S(=O)(=O)n2cc(CCN)c3cccnc32)cc1` [Example 84], for which affinity was put at a Ki of 74.6 nM.
